Measured values published in publication PMC10711598, “Erythromycin, retapamulin, pyridoxine, folic acid, and ivermectin inhibit cytopathic effect, papain-like protease, and M^PRO enzymes of SARS-CoV-2” (Frontiers in Cellular and Infection Microbiology, 2023).

Columns and labels:
[1] = target: SARS-CoV-2 papain-like protease (Severe acute respiratory syndrome coronavirus 2, UniProt P0DTD1); experiment: SensoLyte 520 SARS-CoV-2 papain-like protease activity assay; assay type: biochemical; settings: for Maximal inhibition of PP (%): maximal observed within tested dose range (2.5-10 µM; pyridoxine 5-20 µM); for Dose at maximal observed inhibition of PP: within tested dose range
SARS-CoV-2 [2] = experiment: Inhibition of SARS-CoV-2-induced CPE in Vero cells (neutral red assay); assay type: cell-based; settings: for Maximal inhibition of CPE (%): MOI 0.1, 48 h, maximal observed within tested dose range (5-10 µM; pyridoxine 10-20 µM); for IC50: Severe acute respiratory syndrome coronavirus 2, three-parameter model, responses constrained to 0-100%; for Dose at maximal observed inhibition of CPE: within tested dose range
[3] = target: SARS-CoV-2 main protease (MPRO or 3CL) (Severe acute respiratory syndrome coronavirus 2, UniProt P0DTD1); experiment: SensoLyte 520 SARS-CoV-2 MPRO activity assay; assay type: biochemical; settings: for Maximal inhibition of MPRO (%): maximal observed within tested dose range (2.5-10 µM; pyridoxine 5-20 µM); for Dose at maximal observed inhibition of MPRO: within tested dose range
Vero cells = experiment: Toxicity of the drugs alone to Vero cells (cell toxicity study); settings: all tested doses
SARS-CoV-2 [4] = test system: SARS-CoV-2; set-up: method as in Caly et al., 2020; settings: inhibition of viral replication; ref Caly et al., 2020; cited from earlier work

Row | Molecule | Maximal inhibition of PP (%) [1] | Dose at maximal observed inhibition of PP [1] | Maximal inhibition of CPE (%) (SARS-CoV-2 [2]) | IC50 (SARS-CoV-2 [2]) | Dose at maximal observed inhibition of CPE (SARS-CoV-2 [2]) | Maximal inhibition of MPRO (%) [3] | Dose at maximal observed inhibition of MPRO [3] | Toxicity to Vero cells (Vero cells) | Reduction in viral load (SARS-CoV-2 [4])
1 | CC[C@H]1OC(=O)[C@H](C)[C@@H](O[C@H]2C[C@@](C)(OC)[C@@H](O)[C@H](C)O2)[C@H](C)[C@@H](O[C@@H]2O[C@H](C)C[C@H](N(C)C)[C@H]2O)[C@](C)(O)C[C@@H](C)C(=O)[C@H](C)[C@@H](O)[C@]1(C)O [Erythromycin] | 29.46% | 10.0 µM | 76% | 3.27 µM | 10 µM | 30.51% | 2.5 µM | – | –
2 | Nc1nc2ncc(CNc3ccc(C(=O)N[C@@H](CCC(=O)O)C(=O)O)cc3)nc2c(=O)[nH]1 [Folic Acid] | 31.99% | 5 µM | 42% | – | 5 µM | 26.8% | 2.5 µM | not found to be toxic | –
3 | Cc1ncc(CO)c(CO)c1O [Pyridoxine] | 17.46% | 20.0 µM | 63% | 9.29 µM | 20 µM | 45.17% | 20.0 µM | – | –
4 | C=C[C@]1(C)C[C@@H](OC(=O)CS[C@@H]2C[C@H]3CC[C@@H](C2)N3C)[C@]2(C)[C@H](C)CC[C@]3(CCC(=O)[C@H]32)[C@@H](C)[C@@H]1O [Retapamulin] | 20.60% | 5 µM | 75% | 4.23 µM | 7.5 µM | 33.37% | 2.5 µM | – | –
5 | Ivermectin | 34.34% | 10 µM | 10% | – | – | 38.07% | 5.0 µM | – | up to 5,000 fold
